Source: patent publication US20090220562A1, “Osteogenic and anti-adipogenic oxysterols” (priority 2005, published 2009)

What was measured:
Format in all cases: cell-based, mouse
[1] = test system: Runx2; test: Runx2 DNA binding and protein expression in M2-10B4 cells; conditions: doses of 5-15 μM
Description: Method: Marrow stromal cells (M2-10B4 (M2)) were treated with doses of 5-15 μM 20S-hydroxycholestrol.
Method: Marrow stromal cells (M2-10B4 (M2)) were treated with doses of 5-15 μM20S-hydroxycholestrol. Groups of cells were pre-treated with 22S or 22R.
Method: Marrow stromal cells (M2-10B4 (M2)) were pretreated with Wnt signaling inhibitor, DKK-1 (1 μg/ml), then treated with 20S-hydroxycholestrol and 22(8)-hydroxycholesterol.

[2] = test system: ERK1 and ERK2; test: Western blot for native and phosphorylated ERK in M2 cells; conditions: 5 μM 20S oxysterol for 1, 4, or 8 hours
Description: Western blot analysis—After treatments, cells were lysed in lysis buffer, protein concentrations determined using the Bio-Rad protein assay (Hercules, Calif. U.S.A.), and SDS-PAGE performed as previously described. Probing for native and phosphorylated ERKs was performed as previously reported.
(A) M2 cells at confluence were pretreated for four hours with RPMI containing 1% FBS, followed by treatment with control vehicle or 5 μM 20S oxysterol for 1, 4, or 8 hours. Next total cell extracts were prepared and analyzed for levels of native or phosphorylated ERK (pERK) using specific antibodies as previously described. Data from a representative of four experiments are shown, each treatment shown in duplicate samples. (B) M2 cells at confluence were pretreated for 2 hours with control vehicle (C) or 20 μM PD98059 (PD) in osteogenic medium as previously described. Next, a combination of 22R and 20S oxysterols (RS, 5 μM each) were added to appropriate wells as indicated. After 10 days of incubation, matrix mineralization was quantified by the ^45Ca incorporation assay as previously described. […] (C) M2 cells at confluence were pretreated for 2 hours with 20 µM PD98059 (PD) in RPMI containing 5% FBS. […] After 10 days, adipocytes were visualized by oil Red O staining and quantified by light microscopy as previously described. […]

[3] = test system: lipoprotein lipase (LPL) and adipocyte P2 gene (aP2); test: Northern blotting for adipogenic genes in troglitazone-treated M2 cells; conditions: 10 μM Tro with 10 μM 20S, 10 days
Description: RNA isolation and Northern blot analysis—Following treatment of cells under appropriate experimental conditions, total RNA was isolated using the RNA isolation kit from Stratagene (La Jolla, Calif., U.S.A.). Total RNA ([…]) was run on a 1% agarose/formaldehyde gel and transferred to Duralon-UV membranes (Strategene, CA, U.S.A.) and cross-linked with UV light. The membranes were hybridized overnight at 60 degree C. with ^32P-labeled mouse osteocalcin cDNA probe, mouse lipoprotein lipase (LPL), mouse adipocyte protein 2 (aP^2) PCR-generated probes, human 28S or 18S rRNA probes obtained from Geneka Biotechnology (Montreal, Quebec, Canada) and Maxim Biotech (San Francisco, Calif., U.S.A.), respectively. […] The extent of gene induction was determined by densitometry.
Test 2: (A) M2 cells at confluence were treated in RPMI containing 10% FBS with control vehicle or 10 μM troglitazone (Tro) in the absence or presence of 10 μM 20S or 22S-hydroxycholesterol. After 10 days, adipocytes were visualized by oil Red O staining and quantified by light microscopy, shown in (B). […] After 10 days, total RNA was isolated and analyzed for lipoprotein lipase (LPL), adipocyte P2 gene (aP2) or 18S rRNA expression by Northern blotting as described (Ref). […]

## CC(C)CCC[C@](C)(O)[C@H]1CC[C@H]2[C@@H]3CC=C4C[C@@H](O)CC[C@]4(C)[C@H]3CC[C@@]21C [20S-hydroxycholesterol]
[1]
  Runx2 DNA binding and protein expression: induction
[2]
  activation of ERK1 and ERK2: sustained activation
[3]
  expression of adipocyte P2 gene (aP2): inhibition of the expression
  expression of lipoprotein lipase (LPL): inhibition of the expression
